Data as given in patent US20240239801A1, “PYRIMIDO[5,4,D]PYRIMIDINE COMPOUNDS, COMPOSITIONS COMPRISING THEM AND USES THEREOF” (Université de Montréal, priority 2021, published 2024).

Legend:
HCT116 pERK = assay: Phospho-ERK inhibition, AlphaLISA SureFire Ultra p-ERK 1/2; assay type: cell-based, human; details: for HCT116 (Ymin %): lowest value of the pERK IC50 curve
Protocol: (§1) All cancer cell lines (A375, A101D, A2058, RKO, HT29 SK-MEL 30, IPC298, HepG2, HCT-116, Lovo, SW620, SW480, NCI-H358, NCI-H2122, Calu-6, NCIH2087, NCIH1755, NCIH1666 and Mewo) were obtained from ATCC and cultured in RPMI-1640 medium (Gibco) supplemented with 5% heat inactivated fetal bovine serum (FBS, Wisent) at 37° C. under 5% CO2. Cells were maintained in T175 flasks (Greiner). They were passaged by removing the culture medium, washing once in 10 mL of room temperature Phosphate Buffered Saline (PBS; Wisent) and incubating at 37° C. with 2 mL of 0.05% Trypsin (Thermo-Fisher). Trypsin was then inactivated by adding complete growth medium and the cells were then replated in a T175 culture dish at the appropriate dilution. All cell lines were routinely tested for mycoplasma contamination. Tissue type and mutational status of each cell line can be found in Table B.
(§2) AlphaLISA® SureFire® Ultra™ p-ERK ½ (Thr202/Tyr204) analysis was conducted on cells plated in 100 μL of complete RPMI-1640 growth medium in 96-well flat-bottomed transparent dishes (Costar) at a density indicated in Table C. Cells were maintained overnight at 37° C. under 5% CO2 before treatment with compounds' dilution series for one hour. The cell density in cells/cm^2 corresponds to cell number divided by the area of one well of a 96-well plate ([…]).
(§3) In a dilution series 100 μL/well of test substance dilution prepared in complete RPMI-1640 growth media was added to the cells. The dilution series is selected so that ten concentrations cover a range from 30 μM or 10 μM to 0.33 nM. If necessary, the initial concentration of 10 μM is increased to 100 μM or lowered to 1 μM (as in the case of A375 and NCIH1666 cells, which are generally more sensitive to the compounds) and further dilution is carried out accordingly. The final concentration of DMSO in the assay is set at 0.5%.
(§4) After treatment, media was removed, and cells were lysed in 50 μL of 1× AlphaScreen Ultra Lysis Buffer (Perkin Elmer). The AlphaLISA® SureFire® Ultra™ p-ERK ½ (Thr202/Tyr2O4) (PerkinElmer) reactions were performed with 5 μL of cell lysate according to the manufacturer's specifications in 384-well proxyplates (Perkin Elmer) followed by overnight incubation of the reactions at room temperature in a humidified chamber. After completion of the reactions, the signals were recorded on an EnVision plate reader (Perkin Elmer) using built in AlphaLISA® settings.
(§5) The effect of each compound dilution on the pERK signal was expressed in % inhibition and calculated as follows. An internal 100% inhibition control (1 μM trametinib, cat. No. HY-10999; MedChem Express; CAS No. 871700-17-3) was included in each plate and used as a measure of pERK background. First, the value obtained for trametinib was subtracted from each data point. The average of DMSO (vehicle) controls (set as 0% inhibition) was established and used to calculate % inhibition:
(§6) The ability of each compound to inhibit pERK signal was expressed as an IC50 value obtained by plotting the inhibition values for each data point of a dilution series and fitting the obtained curves using a log(agonist) versus response−variable slope (four parameters) function using GraphPadPrism (V7.0).
(§7) When present, paradoxical pERK induction is inferred from the negative % inhibition values observed in the pERK IC50 curves of a compound.

SW480 pERK = assay: as above; assay type: cell-based, human; details: SW480 cells
Protocol: as §1, §2, §3, §4, §5, §6, §7

BRAF = target: T1, BRAF (Homo sapiens, UniProt P15056); assay: BRAF kinase activity assay (ADP-Glo); assay type: biochemical
T1 construct: GST; purchased Millipore Sigma B4062-10UG
Protocol: (§8) Compound preparation: solid samples of each substances in 1dram vials were suspended in DMSO (Fisher Scientific) at a stock concentration of 20 mM. Stocks were kept at −20° C. and protected from light. If solubility of the compound at 20 mM appeared to be an issue, the initial concentration of the DMSO stock was changed to 10 mM or 5 mM.
(§9) In vitro enzymatic reactions were used for evaluating compounds intrinsic activity against BRAF, CRAF and ARAF. For BRAF and CRAF, 0.375 nM of purified GST-tagged kinases (cat #B4062-10UG and cat #R1656-10UG respectively from Millipore Sigma) were incubated with 75 nM of kinase-dead MEK1 substrate (cat #40075; BPS Bioscience) in the presence of 10 μM of Ultrapure ATP (cat #V9102; Promega; part V915A) with and without the test compound in a buffer containing 50 mM HEPES pH 7.5, 10 mM MgCl2, 1 mM EDTA, 0.01% Brij-35 and 2 mM DTT. Separate reactions were performed with the MEK1 substrate and ATP as a blank control. ARAF, kinase reactions were rigorously the same with the exception that kinase concentration was raised to 3.75 nM (cat #1768-0000-1; Reaction Biology).
(§10) For compound treatment, 5 μL/well of test substance solution are placed in a 384-well proxyplate (Perkin Elmer) and mixed with 2× concentrated kinase reactions. The dilution series is selected so that nine concentrations cover a range from 100 nM to 0.01 nM. […] The final concentration of DMSO in the assay is set at 0.05%.
(§11) BRAF and CRAF kinase reactions were carried out for a total of 2 hours at 30° C. and then stopped by ½ dilution in ADP-Glo Reagent (cat #V9102; Promega; part V912C). Reactions were then incubated for 1 h at room temperature before addition of one volume of Kinase Detection Reagent (cat #V9102; Promega; part V917A). Plates were then equilibrated at room temperature for 30 minutes before detection of luminescence on a Synergy Neo2 plate reader (Biotek). The effect of each compound dilution on BRAF and CRAF kinase activity was expressed as % inhibition and calculated as follows. First, the internal 100% inhibition control (average of luminescence in kinase reactions comprising kinase dead MEK1 substrate alone) was subtracted from each data point. The average of DMSO (vehicle) controls (set as 0% inhibition) was established and used to calculate % inhibition:
(§12) IC50 values were obtained by plotting the kinase inhibition values and fitting the dose-activity curves using a log(agonist) versus response−variable slope (four parameters) function using either GraphPadPrism (V7.0) or Dotmatics Screening Ultra platform. Standards included in the ARAF kinase assay were Belvarafenib (MedChem Express cat #HY-109080; CAS #1446113-23-0), LXH254 (MedChem Express cat #HY-112089; CAS #1800398-38-2) and BGB283 (cat #HY-18957; CAS #1446090-79-4).

CRAF = CRAF (Homo sapiens, UniProt P04049); assay: CRAF kinase activity assay (ADP-Glo); assay type: biochemical
Protocol: as §8, §9, §10, §11, §12

[1] = Homo sapiens, HCT-116, Table 3, 1 h treatment

Chain of CRAF (P04049 whole entry): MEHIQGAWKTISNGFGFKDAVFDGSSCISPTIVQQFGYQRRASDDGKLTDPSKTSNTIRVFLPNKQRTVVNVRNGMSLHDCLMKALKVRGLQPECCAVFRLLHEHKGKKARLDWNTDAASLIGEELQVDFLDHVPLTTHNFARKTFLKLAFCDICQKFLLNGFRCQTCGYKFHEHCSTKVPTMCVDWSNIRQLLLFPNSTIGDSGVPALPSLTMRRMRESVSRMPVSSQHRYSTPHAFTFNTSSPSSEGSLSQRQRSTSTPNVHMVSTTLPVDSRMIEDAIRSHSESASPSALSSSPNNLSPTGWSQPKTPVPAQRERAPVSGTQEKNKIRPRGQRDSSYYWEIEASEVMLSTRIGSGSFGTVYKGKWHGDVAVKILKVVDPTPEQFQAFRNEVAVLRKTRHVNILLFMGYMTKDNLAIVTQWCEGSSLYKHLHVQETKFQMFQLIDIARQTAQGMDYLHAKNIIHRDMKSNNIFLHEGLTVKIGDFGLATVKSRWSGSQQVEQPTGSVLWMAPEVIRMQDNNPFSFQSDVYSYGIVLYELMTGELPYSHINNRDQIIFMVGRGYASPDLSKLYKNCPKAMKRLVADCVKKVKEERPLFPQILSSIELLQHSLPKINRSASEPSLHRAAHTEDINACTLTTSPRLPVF
T1 sequence (P15056 whole entry): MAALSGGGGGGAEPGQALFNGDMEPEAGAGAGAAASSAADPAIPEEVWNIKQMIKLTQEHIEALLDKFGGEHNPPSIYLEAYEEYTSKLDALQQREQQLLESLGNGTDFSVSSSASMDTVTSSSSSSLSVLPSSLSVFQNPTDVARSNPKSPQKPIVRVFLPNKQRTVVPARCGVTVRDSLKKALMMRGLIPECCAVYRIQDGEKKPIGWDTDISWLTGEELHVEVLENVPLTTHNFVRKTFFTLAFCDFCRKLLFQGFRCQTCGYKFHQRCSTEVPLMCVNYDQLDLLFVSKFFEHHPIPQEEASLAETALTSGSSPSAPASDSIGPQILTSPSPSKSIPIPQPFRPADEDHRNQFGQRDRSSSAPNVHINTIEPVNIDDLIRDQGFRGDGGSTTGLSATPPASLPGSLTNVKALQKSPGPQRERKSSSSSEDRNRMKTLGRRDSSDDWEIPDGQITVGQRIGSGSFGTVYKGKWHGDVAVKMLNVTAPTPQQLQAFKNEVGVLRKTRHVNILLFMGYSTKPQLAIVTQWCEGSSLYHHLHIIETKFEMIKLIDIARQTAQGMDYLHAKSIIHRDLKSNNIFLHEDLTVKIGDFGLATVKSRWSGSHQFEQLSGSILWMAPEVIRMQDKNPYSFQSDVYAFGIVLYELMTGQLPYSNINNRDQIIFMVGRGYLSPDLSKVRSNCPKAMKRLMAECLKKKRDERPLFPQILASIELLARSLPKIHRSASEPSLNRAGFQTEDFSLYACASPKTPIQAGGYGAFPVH

| Compound | IC50 (HCT116 pERK; Table 3, 1 h treatment) | HCT116 (Ymin %) (HCT116 pERK; Table 3) | IC50 (BRAF; Table 3) | IC50 (CRAF; Table 3) | further results |
| --- | --- | --- | --- | --- | --- |
| COc1ccc(S(=O)(=O)Nc2ccc(F)c(Nc3ncnc4cnc(SC)nc34)c2Cl)cc1 [Example 89] | – | – | – | – | IC50 (HCT116 pERK; HCT116 cells, pERK): 10000 to 30000 nM; HCT116 pERK % Ymin (lowest value of the IC50 curve) (HCT116 pERK; HCT116 cells, value in brackets, Ymin above −20% = minimal or no paradoxical induction): −5%; IC50 (SW480 pERK; pERK, read-out: SW480 PERK IC50): 10000 to 30000 nM; SW480 pERK % Ymin (lowest value of the IC50 curve) (SW480 pERK; value in brackets, Ymin above −20% = minimal or no paradoxical induction): 3.5% |
| CSc1ncc2ncnc(Nc3c(F)ccc(NS(=O)(=O)c4cccc(F)c4C)c3F)c2n1 [Example 90] | – | – | – | – | IC50 (HCT116 pERK; Homo sapiens, HCT-116, Table 2, 1 h treatment): 1000 to 10000 nM; IC50 (BRAF; Table 2): 1 to 10 nM |
| COc1ccc(S(=O)(=O)Nc2ccc(F)c(Nc3ncnc4cnc(SC)nc34)c2F)c(C)c1F [Example 91] | – | – | – | – | IC50 (HCT116 pERK; Table 2, 1 h treatment): 1000 to 10000 nM; HCT116 (Ymin %) (HCT116 pERK; Table 2): −8%; IC50 (BRAF; Table 2): > 10 nM; IC50 (CRAF; Table 2): 10 to 50 nM |
| COc1ccc(S(=O)(=O)Nc2ccc(F)c(Nc3ncnc4cnc(SC)nc34)c2F)c(C)c1Cl [Example 92] | – | – | – | – | IC50 (HCT116 pERK; Table 2, 1 h treatment): 1000 to 10000 nM; HCT116 (Ymin %) (HCT116 pERK; Table 2): −12%; IC50 (BRAF; Table 2): 1 to 10 nM |
| Cc1c(F)cccc1S(=O)(=O)Nc1ccc(F)c(Nc2ncnc3cnc(-n4nnc5c(N)cccc54)nc23)c1F [Example 93] | < 500 nM | 1.3% | 1 to 10 nM | < 10 nM | – |
| Nc1cccc2c1nnn2-c1ncc2ncnc(Nc3c(F)ccc(NS(=O)(=O)c4cccc(Cl)c4Cl)c3F)c2n1 [Example 94] | < 500 nM | 7.7% | 1 to 10 nM | < 10 nM | – |
| Cc1c(F)cccc1S(=O)(=O)Nc1ccc(F)c(Nc2ncnc3cnc(-n4cc(S(=O)(=O)N5CCN(C)CC5)c5ccccc54)nc23)c1F [Example 96] | – | – | < 1 nM | < 10 nM | IC50 (HCT116 pERK; [1]): < 500 nM |
| Cc1c(F)cccc1S(=O)(=O)Nc1ccc(F)c(Nc2ncnc3cnc(-n4cc(C(=O)N(C)C)c5ccccc54)nc23)c1F [Example 97] | < 500 nM | −6.3% | < 1 nM | 10 to 50 nM | – |
| Cc1c(F)cccc1S(=O)(=O)Nc1ccc(F)c(Nc2ncnc3cnc(-n4cc(C(=O)N5CCN(C)CC5)c5ccccc54)nc23)c1F [Example 99] | – | (−3.6) % | < 1 nM | 10 to 50 nM | – |
| Cc1c(F)cccc1S(=O)(=O)Nc1ccc(F)c(Nc2ncnc3cnc(-n4cc(C(=O)N5CCOCC5)c5ccccc54)nc23)c1F [Example 100] | < 500 nM | 2.2% | < 1 nM | 10 to 50 nM | – |
| Cc1c(F)cccc1S(=O)(=O)Nc1ccc(F)c(Nc2ncnc3cnc(-n4cc(C(=O)N(C)CCO)c5ccccc54)nc23)c1F [Example 101] | < 500 nM | 3.5% | < 1 nM | < 10 nM | – |
| Cc1c(F)cccc1S(=O)(=O)Nc1ccc(F)c(Nc2ncnc3cnc(-n4cc(C(=O)N5CCC(O)CC5)c5ccccc54)nc23)c1F [Example 102] | 500 to 1000 nM | −9.5% | < 1 nM | < 10 nM | – |
| Cc1c(F)cccc1S(=O)(=O)Nc1ccc(F)c(Nc2ncnc3cnc(-n4cc(C(=O)N5CCC[C@H](O)C5)c5ccccc54)nc23)c1F [Example 103] | 500 to 1000 nM | −9.9% | < 1 nM | < 10 nM | – |
| Cc1c(F)cccc1S(=O)(=O)Nc1ccc(F)c(Nc2ncnc3cnc(-n4nc(C(=O)N5CCN(C)CC5)c5ccccc54)nc23)c1F [Example 104] | – | – | < 1 nM | > 50 nM | IC50 (HCT116 pERK; [1]): < 500 nM |
| Cc1c(F)cccc1S(=O)(=O)Nc1ccc(F)c(Nc2ncnc3cnc(-n4nc(C(=O)N(C)C)c5ccccc54)nc23)c1F [Example 105] | < 500 nM | −8.7% | 1 to 10 nM | > 50 nM | – |
| Cc1c(F)cccc1S(=O)(=O)Nc1ccc(F)c(Nc2ncnc3cnc(-n4nc(C(=O)N(C)Cc5ccncc5)c5ccccc54)nc23)c1F [Example 106] | < 500 nM | −2.3% | < 1 nM | 10 to 50 nM | – |
| Cc1c(F)cccc1S(=O)(=O)Nc1ccc(F)c(Nc2ncnc3cnc(-n4nc(C(=O)N(C)CCO)c5ccccc54)nc23)c1F [Example 107] | 500 to 1000 nM | −5.2% | < 1 nM | 10 to 50 nM | – |
| Cc1c(F)cccc1S(=O)(=O)Nc1ccc(F)c(Nc2ncnc3cnc(-n4nc(C(=O)N5CCC(O)CC5)c5ccccc54)nc23)c1F [Example 108] | 1000 to 10000 nM | −7.0% | – | 10 to 50 nM | – |
| Cc1c(F)cccc1S(=O)(=O)Nc1ccc(F)c(Nc2ncnc3cnc(-n4nc(C(=O)N5CCC[C@H](O)C5)c5ccccc54)nc23)c1F [Example 109] | < 500 nM | −6.5% | < 1 nM | 10 to 50 nM | – |
| Cc1c(F)cccc1S(=O)(=O)Nc1ccc(F)c(Nc2ncnc3cnc(-n4nc(C(=O)N5CCOCC5)c5ccccc54)nc23)c1F [Example 110] | < 500 nM | −3.7% | < 1 nM | 10 to 50 nM | – |
| COc1ccc(S(=O)(=O)Nc2ccc(F)c(Nc3ncnc4cnc(-n5cnc6c(N)cccc65)nc34)c2F)c(C)c1F [Example 111] | < 500 nM | −8.1% | 1 to 10 nM | < 10 nM | – |
| Cc1c(F)cccc1S(=O)(=O)Nc1ccc(F)c(Nc2ncnc3cnc(-n4cc(S(=O)(=O)N(C)Cc5ccncc5)c5ccccc54)nc23)c1F [Example 113] | 500 to 1000 nM | −7.0% | 1 to 10 nM | 10 to 50 nM | – |
